Structures are written as SMILES. Where two headings read alike, the source gives them in different places.

Series [1] can be described thus: Liver microsome half-life assay, mouse. Particulars: liver microsomes, 1 mg/mL liver microsomal protein, 37° C., read-out: Liver microsome T½ (min) Mouse. The series is classed as in vitro ADME. Here is the method: (§1) The in vitro metabolic stability of the compounds of the present disclosure was determined using warm incubation method of liver microsomes in various species. A proper amount of test compound was added to the liver microsomal reaction system (1 mg/mL liver microsomal protein, 25 U/mL glucose-6-phosphate dehydrogenase, 1 mM NADP, 6 mM D-glucose 6-phosphate, 5 mM MgCl2), and the reaction was started by warm incubation in a water bath at 37° C., then 100 μL of the reaction mixture at each time point was added to a centrifuge tube containing 400 μL of internal standard working solution precooled at 0° C. (containing a solution of 200 ng/mL dexamethasone, diclofenac, tolbutamide, and labetalol in acetonitrile), then the reaction was terminated, centrifuged at 4° C. and 10,000 g for 10 min, and the supernatant was taken into LC-MS for analysis and detection to obtain in vitro metabolic half-lives of the test compounds in liver microsomes of various species.
On the technique in general: Microsomes from liver hold many membrane-bound enzymes, among them those of drug oxidation.

Series [2] in a line: Liver microsome half-life assay, rat. The series is classed as in vitro ADME. Particulars: liver microsomes, 1 mg/mL liver microsomal protein, 37° C., read-out: Liver microsome T½ (min) Rat. Here is the method:
as §1

A further series has as its target TRPC5 channel (Homo sapiens (Human), UniProt Q9UL62). The series can be described thus: TRPC5 calcium flux assay (Fluo-4, FLIPR) in TRPC5-HEK 293 cells. The series is classed as cell-based. Particulars: 0.3 nM Englerin A. How it is done: TRPC5 is a type of non-selective cation channel with permeability to calcium ions. […] Fluo-4 AM fluorescence dye was used to indirectly reflect the effect of the compound on TRPC5 channel by detecting intracellular Ca^2+ in TRPC5-HEK 293 cells.
• Revival solution: 100% high glucose DMEM • Selection medium: high glucose DMEM+10% FBS+1% P/S+1% HEPES+Blasticidin (5 μg/mL)+Hygromycine (50 μg/mL) • Induction medium: high glucose DMEM+10% FBS+1% P/S+1% HEPES+Doxycycline (1 μg/mL)
14 hours before the real-time fluorescence experiment, cells were washed with PBS and digested with trypsin-EDTA. Cells were diluted to 200,000 cells/mL with induction medium and seeded onto a 96-well black wall bottom transparent plate coated with poly-D-lysine (PDL) (stock solution of 10 mg/mL, final concentration of 10 μg/mL) at 100 μL/well, i.e., 20,000 cells/well.
500 mL of external solution for detecting TRPC5 calcium signals: 4.0908 g of NaCl, 0.1864 g of KCl, 0.111 g of CaCl2, 0.0476 g of MgCl2, 0.9 g of glucose, 1.1915 g of HEPES (2-[4-(2-hydroxyethyl)piperazin-1-yl]ethanesulfonic acid).
Calcium fluorescent dye: an external solution for detecting TRPC5 calcium signals containing Fluo-4 with a final concentration of 4 μM (containing 0.5% BSA)
Positive inhibitor concentration: 100 nM
The dose-effect diagram was used to calculate AUC (area under the curve of the curve formed by the calcium flux signal), and the data and the log of the compound concentration were collected. The IC50 value was calculated using log[Inhibitor] vs. response Variable slope.
TRPC5 is a type of non-selective cation channel with permeability to calcium ions. […] Fluo-4 AM fluorescence dye was used to indirectly reflect the effect of the compound on TRPC5 channel by detecting intracellular […] in TRPC5-HEK 293 cells.
1. Cell culture 1.1 Revival of TRPC5-HEK 293 cells • Revival solution: 100% high glucose DMEM • Selection medium: high glucose DMEM+10% FBS+1% P/S+1% HEPES+Blasticidin (5 μg/mL)+Hygromycine (50 μg/mL) • Induction medium: high glucose DMEM+10% FBS+1% P/S+1% HEPES+Doxycycline (1 μg/mL)
14 hours before the real-time fluorescence experiment, cells were washed with PBS and digested with trypsin-EDTA (TE). Cells were diluted to 200,000 cells/mL with induction medium and seeded onto a 96-well black wall bottom transparent plate coated with poly-D-lysine (PDL) (stock solution of 10 mg/mL, final concentration of 10 μg/mL) at 100 μL/well, i.e., 20,000 cells/well.
(In general: A change in cytosolic calcium serves as a functional read-out for many receptors and channels.)

Sequence of TRPC5 channel (Q9UL62 whole entry): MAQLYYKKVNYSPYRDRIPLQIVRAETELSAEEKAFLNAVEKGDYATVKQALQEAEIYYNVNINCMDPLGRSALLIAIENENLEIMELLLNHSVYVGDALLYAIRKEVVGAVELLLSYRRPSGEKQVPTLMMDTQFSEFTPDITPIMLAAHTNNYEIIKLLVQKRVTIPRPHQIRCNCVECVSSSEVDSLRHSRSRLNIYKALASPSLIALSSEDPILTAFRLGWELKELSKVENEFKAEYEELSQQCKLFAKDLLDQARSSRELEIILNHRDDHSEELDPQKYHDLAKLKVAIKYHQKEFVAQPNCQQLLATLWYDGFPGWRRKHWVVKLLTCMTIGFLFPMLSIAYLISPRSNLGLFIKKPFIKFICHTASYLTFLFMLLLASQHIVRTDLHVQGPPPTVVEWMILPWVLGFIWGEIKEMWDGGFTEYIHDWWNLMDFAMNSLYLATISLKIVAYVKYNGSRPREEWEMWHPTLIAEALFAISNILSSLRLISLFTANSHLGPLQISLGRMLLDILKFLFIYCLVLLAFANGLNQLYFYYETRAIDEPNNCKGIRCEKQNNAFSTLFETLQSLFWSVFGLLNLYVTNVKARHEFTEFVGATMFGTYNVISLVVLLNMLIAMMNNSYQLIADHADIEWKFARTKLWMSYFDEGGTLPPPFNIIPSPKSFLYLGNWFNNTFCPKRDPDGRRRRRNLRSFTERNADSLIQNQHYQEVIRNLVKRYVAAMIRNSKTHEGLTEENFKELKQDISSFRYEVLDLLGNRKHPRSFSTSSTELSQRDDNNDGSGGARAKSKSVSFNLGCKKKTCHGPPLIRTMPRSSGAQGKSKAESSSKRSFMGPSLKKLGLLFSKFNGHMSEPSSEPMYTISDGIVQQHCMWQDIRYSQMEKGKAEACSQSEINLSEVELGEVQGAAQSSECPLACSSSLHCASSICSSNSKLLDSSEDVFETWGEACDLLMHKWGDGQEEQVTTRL

Turning to `O=C(c1ccc(F)cc1C(F)(F)F)c1cnc2n1CCN(c1cn[nH]c(=O)c1Cl)C2` [Compound 1-6, 4-chloro-5-(3-(4-fluoro-2-(trifluoromethyl)benzoyl)-5,6-dihydroimidazo[1,2-a]pyrazin-7(8H)-yl)pyridazin-3(2H)-one], the half-life in series [1] came out at 78 min; in series [2] it was 174 min. For the same molecule, the IC50 at TRPC5 channel (Table 1, read-out: TRPC5 inhibitory activity, IC50) amounted to 11.5 nM; at TRPC5 channel (Table 11, read-out: TRPC5 inhibitory activity, IC50) it was 11.5 nM.

As usually defined, the IC50 is the point on the concentration scale where inhibition reaches its midpoint.
